Test results from the NIST ThermoML archive (doi:10.1021/je060271a).
Numbers after ± are expanded uncertainties.

Conditions: 283.15 K, Liquid, Vibrating tube method

CCCCCC(=O)OCC(COC(=O)CCCCC)(COC(=O)CCCCC)COC(=O)CCCCC [pentaerythritol tetrahexanoate]
Conditions | mass density [kg/m3]
383.6 kPa | 1004.5 ± 1.2
385.7 kPa | 1004.2 ± 1.2
387.9 kPa | 1004.3 ± 1.2
390 kPa | 1004.4 ± 1.2
391.9 kPa | 1004.3 ± 1.2
394 kPa | 1004.4 ± 1.2
396.6 kPa | 1004.3 ± 1.2
398.4 kPa | 1004.4 ± 1.2
401 kPa | 1004.4 ± 1.2
413.1 kPa | 1004.4 ± 1.2
415.2 kPa | 1004.3 ± 1.2
417.8 kPa | 1004.3 ± 1.2
420.6 kPa | 1004.3 ± 1.2
423.2 kPa | 1004.4 ± 1.2
425.6 kPa | 1004.3 ± 1.2
428.4 kPa | 1004.4 ± 1.2
430.9 kPa | 1004.5 ± 1.2
434 kPa | 1004.4 ± 1.2
436.2 kPa | 1004.5 ± 1.2
442.3 kPa | 1004.4 ± 1.2
444.9 kPa | 1004.4 ± 1.2
448.1 kPa | 1004.4 ± 1.2
450.8 kPa | 1004.4 ± 1.2
453.4 kPa | 1004.4 ± 1.2
456.8 kPa | 1004.4 ± 1.2
459.7 kPa | 1004.4 ± 1.2
462.7 kPa | 1004.4 ± 1.2
466 kPa | 1004.4 ± 1.2
469.4 kPa | 1004.4 ± 1.2
472.6 kPa | 1004.4 ± 1.2
476 kPa | 1004.3 ± 1.2
479.5 kPa | 1004.3 ± 1.2
482.8 kPa | 1004.4 ± 1.4
486 kPa | 1004.4 ± 1.2
489.8 kPa | 1004.3 ± 1.2
493.6 kPa | 1004.3 ± 1.2
496.7 kPa | 1004.5 ± 1.2
512 kPa | 1004.5 ± 1.2
515.7 kPa | 1004.4 ± 1.2
519.1 kPa | 1004.5 ± 1.2
523.7 kPa | 1004.3 ± 1.2
527.3 kPa | 1004.5 ± 1.2
531.3 kPa | 1004.4 ± 1.2
535.3 kPa | 1004.4 ± 1.2
540.3 kPa | 1004.4 ± 1.2
544 kPa | 1004.4 ± 1.2
548.5 kPa | 1004.5 ± 1.2
553 kPa | 1004.5 ± 1.2
557 kPa | 1004.5 ± 1.2
561.4 kPa | 1004.4 ± 1.2
566.4 kPa | 1004.3 ± 1.2
571.4 kPa | 1004.5 ± 1.2
576.3 kPa | 1004.4 ± 1.2
580.5 kPa | 1004.5 ± 1.2
585.3 kPa | 1004.4 ± 1.2
590.2 kPa | 1004.5 ± 1.2
595.8 kPa | 1004.5 ± 1.2
600.1 kPa | 1004.5 ± 1.2
604.8 kPa | 1004.6 ± 1.2
611.2 kPa | 1004.5 ± 1.2
616.8 kPa | 1004.5 ± 1.2
621.8 kPa | 1004.6 ± 1.2
627.7 kPa | 1004.6 ± 1.2
633.3 kPa | 1004.5 ± 1.2
638.7 kPa | 1004.5 ± 1.2
644.2 kPa | 1004.5 ± 1.2
650.7 kPa | 1004.4 ± 1.2
657.1 kPa | 1004.4 ± 1.2
676 kPa | 1004.5 ± 1.2
681.9 kPa | 1004.5 ± 1.2
688 kPa | 1004.5 ± 1.2
694.4 kPa | 1004.5 ± 1.2
700.5 kPa | 1004.5 ± 1.2
707.3 kPa | 1004.7 ± 1.2
714.2 kPa | 1004.5 ± 1.2
720.3 kPa | 1004.5 ± 1.2
728 kPa | 1004.5 ± 1.2
734.6 kPa | 1004.6 ± 1.2
742.2 kPa | 1004.6 ± 1.2
749.5 kPa | 1004.6 ± 1.2
756.6 kPa | 1004.6 ± 1.2
763.9 kPa | 1004.6 ± 1.2
771.1 kPa | 1004.5 ± 1.2
780.4 kPa | 1004.7 ± 1.2
787.7 kPa | 1004.6 ± 1.2
796.1 kPa | 1004.5 ± 1.2
803.7 kPa | 1004.6 ± 1.2
821.4 kPa | 1004.6 ± 1.2
829.9 kPa | 1004.6 ± 1.2
840 kPa | 1004.6 ± 1.2
848.9 kPa | 1004.6 ± 1.2
857.7 kPa | 1004.6 ± 1.2
866.4 kPa | 1004.7 ± 1.2
877.2 kPa | 1004.7 ± 1.2
886.2 kPa | 1004.6 ± 1.2
895.6 kPa | 1004.7 ± 1.2
905.1 kPa | 1004.6 ± 1.2
916.6 kPa | 1004.8 ± 1.2
926.7 kPa | 1004.6 ± 1.2
936.4 kPa | 1004.6 ± 1.2
948.2 kPa | 1004.6 ± 1.2
958.6 kPa | 1004.7 ± 1.2
969.1 kPa | 1004.8 ± 1.2
979.3 kPa | 1004.6 ± 1.2
989.7 kPa | 1004.8 ± 1.2
1001.9 kPa | 1004.8 ± 1.2
1012 kPa | 1004.7 ± 1.2
1024.5 kPa | 1004.7 ± 1.2
1035.1 kPa | 1004.8 ± 1.2
1045.3 kPa | 1004.6 ± 1.2
1055.6 kPa | 1004.8 ± 1.2
1066.1 kPa | 1004.7 ± 1.2
1078.8 kPa | 1004.6 ± 1.2
1089.1 kPa | 1004.8 ± 1.2
1099.8 kPa | 1004.8 ± 1.2
1113 kPa | 1004.8 ± 1.2
1123.6 kPa | 1004.9 ± 1.2
1134.7 kPa | 1004.8 ± 1.2
1147.6 kPa | 1004.7 ± 1.2
1158.7 kPa | 1004.7 ± 1.2
1170 kPa | 1004.8 ± 1.2
1183.6 kPa | 1004.9 ± 1.2
1194.7 kPa | 1004.7 ± 1.2
1206.3 kPa | 1004.9 ± 1.2
1218.1 kPa | 1004.8 ± 1.2
1229.9 kPa | 1004.9 ± 1.2
1241.6 kPa | 1004.9 ± 1.2
1258.7 kPa | 1005 ± 1.2
1270.9 kPa | 1004.9 ± 1.2
1283.6 kPa | 1004.8 ± 1.2
1298.2 kPa | 1004.8 ± 1.2
1310.3 kPa | 1004.8 ± 1.2
1322.8 kPa | 1004.8 ± 1.2
1338.1 kPa | 1004.9 ± 1.2
1351.5 kPa | 1004.8 ± 1.2
1364.1 kPa | 1004.9 ± 1.2
1377 kPa | 1004.9 ± 1.2
1393.1 kPa | 1004.8 ± 1.2
1406.3 kPa | 1005 ± 1.2
1420 kPa | 1004.9 ± 1.2
1433.4 kPa | 1005 ± 1.2
1449.5 kPa | 1005 ± 1.2
1462.7 kPa | 1005 ± 1.2
1476.5 kPa | 1004.8 ± 1.2
1492.4 kPa | 1005 ± 1.2
